Common to all, as to test: ≥ marks a high value that may be exact or a test limit, other limits are often not marked, values filed in µg/mL are converted to µM
For assay [1], the system named is Escherichia coli C600.
For assay [2], the system named is Staphylococcus aureus ATCC 33591.
Assay [3] relates to Pseudomonas aeruginosa 2.
Assay [4] relates to Pseudomonas aeruginosa PAO1.
Assay [5] deals with Escherichia coli 1.
Assay [6] deals with Pseudomonas aeruginosa 1.
The test system of assay [7] is Staphylococcus aureus 209P.
In assay [8] the test system is Klebsiella pneumoniae 2.
In assay [9] the test system is Klebsiella pneumoniae 1.
For assay [10], the system named is Escherichia coli.
The subject of assay [11] is Candida krusei ATCC 6258.
For assay [12], the system named is Candida tropicalis ATCC 13803.
Assay [13] deals with Candida albicans SC5314.
Assay [14] has as its system Candida parapsilosis ATCC 22019.
For assay [15], the system named is Listeria fleischmannii DSM 24998.
Assay [16] deals with Listeria monocytogenes DSM 20600.
Assay [17] relates to Listeria grayi DSM 20601.
Assay [18] deals with Escherichia coli D31.
Assay [19] deals with Micrococcus luteus DSM 20030.
The test system of assay [20] is Staphylococcus aureus ATCC 33592.
In assay [21] the test system is Staphylococcus aureus NCTC 8530.
The subject of assay [22] is Pseudomonas aeruginosa ATCC 27853.
The test system of assay [23] is Staphylococcus aureus ATCC 6538P.
In assay [24] the test system is Klebsiella pneumoniae ATCC 700603.
For assay [25], the system named is Escherichia coli DH5alpha.
Assay [26] relates to Bacillus subtilis PY79.
Assay [27] relates to Pseudomonas aeruginosa PA14.
Assay [28] deals with Escherichia coli ATCC 25922.
The test system of assay [29] is Klebsiella pneumoniae.
Assay [30] deals with Staphylococcus aureus ATCC 25923.
The test system of assay [31] is Streptococcus pneumoniae ATCC 49619.
Assay [32] deals with Mycobacterium tuberculosis mc2-6020.
In assay [33] the test system is Streptococcus agalactiae.
In assay [34] the test system is Streptococcus pyogenes.
Assay [35] has as its system Streptococcus mutans.
Assay [36] concerns Mycobacterium tuberculosis mc2-6230.
The subject of assay [37] is Candida albicans C627.
Assay [38] has as its system Pseudomonas aeruginosa H103.
Assay [39] deals with Escherichia coli ESBL 63103.
Assay [40] concerns Pseudomonas aeruginosa 213.
Assay [41] relates to Enterococcus faecium mic80.
For assay [42], the system named is Staphylococcus aureus C623.
Assay [43] has as its system Pseudomonas aeruginosa LES400.

This note sets out measurements from DBAASP.

In brackets after ≈: the same amount, converted by molar mass. Several values for one entry are separate records, joined by “and”; a condition that tells them apart may be missing. Equal entries are not always repeated.

On to `CC(C)[C@@H]1NC(=O)CNC(=O)[C@H](CCCN=C(N)N)NC(=O)[C@H](C(C)C)NC(=O)[C@H](CCCN=C(N)N)NC(=O)[C@H](C)NC(=O)[C@H](Cc2ccc(O)cc2)NC(=O)[C@H](C(C)C)NC(=O)[C@@H](NC(=O)[C@H](Cc2c[nH]c3ccccc23)NC(=O)[C@@H](N)CCCN=C(N)N)CSSC[C@@H](C(=O)N[C@@H](Cc2c[nH]c3ccccc23)C(=O)O)NC(=O)[C@H](CCCN=C(N)N)NC(=O)[C@H](CCCN=C(N)N)NC(=O)[C@H](Cc2ccc(O)cc2)NC(=O)[C@H](CCCN=C(N)N)NC1=O` [RWCVYARVRGVRYRRCW], for which the MIC (commonly the least concentration at which growth counts as inhibited) was 1.56 µM (≈ 3.56 µg/mL) in assay [1]; 0.06 µM (≈ 0.137 µg/mL) in [2]; 4 µM (≈ 9.13 µg/mL) in assay [3]; 6.25 µM (≈ 14.3 µg/mL) in assay [4]; 1 µM and 0.5 µM in assay [5]; 2 µM and 4 µM in assay [6]. Moreover, the MIC in assay [7] was 1.56 µM (≈ 3.56 µg/mL); in [8] it was 2 µM (≈ 4.57 µg/mL); in assay [9], 1 µM and 2 µM; in assay [10], 1 µM (≈ 2.28 µg/mL).

With `NCCCC[C@H](NC(=O)[C@H](Cc1ccc(O)cc1)NC(=O)[C@H](CCCCN)NC(=O)[C@@H](N)CS)C(=O)N[C@@H](Cc1c[nH]c2ccccc12)C(=O)N[C@@H](CCCN=C(N)N)C(=O)O` [CKYKWR], the MIC in assay [11] is at least 113 µM; in [12], at least 56.6 µM; in assay [13], at least 113 µM; in [14] it was at least 113 µM.

Regarding `CC[C@H](C)[C@H](N)C(=O)N[C@@H](Cc1ccccc1)C(=O)NCC(=O)N[C@@H](C)C(=O)N[C@H](C(=O)N[C@@H](Cc1c[nH]c2ccccc12)C(=O)N[C@@H](CO)C(=O)NCC(=O)N[C@H](C(=O)N[C@@H](CCCCN)C(=O)N[C@@H](CO)C(=O)N[C@@H](CC(C)C)C(=O)N[C@@H](Cc1ccccc1)C(N)=O)[C@@H](C)CC)[C@@H](C)CC` [IFGAIWSGIKSLF], the MIC in assay [15] turned out to be 4 µM (≈ 5.75 µg/mL); in assay [16] it was 4 µM (≈ 5.75 µg/mL); in [17], 8 µM (≈ 11.5 µg/mL); in [18] it was 8 µM (≈ 11.5 µg/mL); in assay [19], 4 µM (≈ 5.75 µg/mL).

On to `CC[C@H](C)[C@H](NC(=O)[C@H](Cc1ccccc1)NC(=O)[C@H](CC(C)C)NC(=O)[C@H](CCCN=C(N)N)NC(=O)[C@@H](NC(=O)[C@H](CCCCN)NC(=O)[C@@H](NC(=O)[C@H](CC(C)C)NC(=O)[C@@H](N)C(C)C)[C@@H](C)CC)[C@@H](C)O)C(=O)N[C@@H](CCCCN)C(=O)N[C@@H](CCCN=C(N)N)C(=O)N[C@@H](CCCCN)C(=O)O` [VLIKTRLFIKRK], for which the MIC was found to be 4 µM (≈ 6.06 µg/mL) in assay [20], 8 µM (≈ 12.1 µg/mL) in [21] and 8 µM (≈ 12.1 µg/mL) in [22].

As to `CC(C)C[C@H](NC(=O)[C@H](CCCN=C(N)N)NC(=O)[C@@H](NC(=O)[C@H](CCCN=C(N)N)NC(=O)[C@@H](N)CC(C)C)C(C)C)C(=O)N[C@@H](C)C(=O)N[C@@H](CO)C(=O)N[C@@H](Cc1cnc[nH]1)C(=O)N[C@@H](CC(C)C)C(=O)N[C@@H](CCCN=C(N)N)C(=O)N[C@@H](CCCCN)C(=O)N[C@@H](CC(C)C)C(=O)N[C@@H](CCCN=C(N)N)C(=O)N[C@@H](CCCCN)C(=O)N[C@@H](CCCN=C(N)N)C(=O)N[C@@H](CC(C)C)C(=O)N[C@@H](CC(C)C)C(=O)N[C@@H](CCCN=C(N)N)C(=O)O` [LRVRLASHLRKLRKRLLR], the MIC is 3.12 µM (≈ 7.13 µg/mL) in assay [23]; 6.25 µM (≈ 14.3 µg/mL) in [24]; 25 µM (≈ 57.1 µg/mL) in assay [4]; 12.5 µM (≈ 28.6 µg/mL) in assay [25]; 25 µM (≈ 57.1 µg/mL) in [26]; at least 50 µM in assay [27]. In assay [28], this compound returned an MIC of 6.25 µM (≈ 14.3 µg/mL).

In the case of `CC[C@H](C)[C@H](N)C(=O)N[C@@H](CCCN=C(N)N)C(=O)N[C@@H](CCCCN)C(=O)N[C@@H](CC(C)C)C(=O)N[C@@H](CCCCN)C(=O)N[C@@H](CO)C(=O)N[C@@H](Cc1c[nH]c2ccccc12)C(=O)N[C@@H](CCCCN)C(=O)N[C@@H](Cc1c[nH]c2ccccc12)C(=O)N[C@@H](CC(C)C)C(=O)N[C@@H](CCCN=C(N)N)C(=O)N[C@@H](Cc1c[nH]c2ccccc12)C(=O)N[C@@H](CC(C)C)C(=O)O` [IRKLKSWKWLRWL], the MIC in [29] is 136 µM (≈ 247 µg/mL); in [30], 32 µM (≈ 58 µg/mL); in assay [31], at least 32 µM; in assay [32] it was 16 µM (≈ 29 µg/mL); in assay [33] it was at least 32 µM; in assay [34], 4 µM (≈ 7.25 µg/mL). Besides, the minimal inhibitory concentration (MIC) in [35] is 8 µM (≈ 14.5 µg/mL); in assay [22], 68 µM (≈ 123 µg/mL); in assay [28], 16 µM (≈ 29 µg/mL); in assay [36], at least 68 µM.

In the case of `CC[C@H](C)[C@H](NC(=O)[C@H](Cc1c[nH]c2ccccc12)NC(=O)[C@H](CCCN=C(N)N)NC(=O)[C@H](Cc1c[nH]c2ccccc12)NC(=O)[C@H](Cc1c[nH]c2ccccc12)NC(=O)[C@H](CCCN=C(N)N)NC(=O)[C@H](CCCCN)NC(=O)[C@H](Cc1c[nH]c2ccccc12)NC(=O)[C@@H](N)CCCN=C(N)N)C(=O)O` [RWKRWWRWI], the MIC in assay [37] was found to be 2.72 µM (≈ 4 µg/mL); in [30] it was 5.43 µM (≈ 8 µg/mL); in assay [38] it was 2.72 µM (≈ 4 µg/mL); in [39], 10.9 µM (≈ 16 µg/mL); in [40], 21.7 µM (≈ 32 µg/mL); in [41] it was 21.7 µM (≈ 32 µg/mL). The figures for the MIC in [42] and in [43] were 2.72 µM (≈ 4 µg/mL) and 21.7 µM (≈ 32 µg/mL), respectively.
